Experimental data taken from patent US20080008773A1, “Food beverage or feed for the promotion of osteogenesis comprising umbelliferae, liliaceae or compositae plant species” (priority 2002, published 2008).

Key:
ST-2 cells = assay: Induction of differentiation of ST-2 cells into osteoblasts (alkaline phosphatase as index); format: cell-based, Mouse
Procedure: (§1) (1) Mouse interstitial cell strain ST-2 was suspended in DMEM medium (manufactured by Bio Whittaker) containing 10% fetal bovine serum (manufactured by Bio Whittaker) so as to have a concentration of 3×10^4 cells/ml. The suspension was put to a 96-well plate in an amount of 0.1 ml per well, and the cells were cultured sterilely. After the cells were cultured for 2 days, the medium was exchanged with a fresh medium. The compound a derived from root portions of Angelica keiskei koidz. obtained in Example 1 was added thereto as a sample, and the cells were cultured for 3 days. Subsequently, differentiation of ST-2 cells into osteoblasts was measured using alkaline phosphatase as an index. The cells were washed once with PBS, 100 μl of a reaction substrate solution (100 mM diethanolamine buffer, pH 10.0, 2 mM magnesium chloride, 1 mM p-nitrophenyl phosphate) was added thereto, and the reaction was carried out at 37° C. for 30 minutes. Next, the reaction was terminated with adding 100 μl of 0.2 N sodium hydroxide, and the amount of p-nitrophenol which was released was determined by determining absorbance at 405 nm. The activity for induction of differentiation into osteoblasts was shown by setting a group without addition of the sample as a control, and defining alkaline phosphatase activity of the control as 100%. The experiments were carried out twice, and the average was taken.

MC3T3-E1 cells = assay: Induction of differentiation of MC3T3-E1 cells into osteoblasts (alkaline phosphatase as index); format: cell-based, Mouse
Procedure: as §1
Mouse pre-osteoblast strain MC3T3-E1 was suspended in DMEM medium containing 10% fetal bovine serum so as to have a concentration of 3×10^4 cells/ml. The suspension was put to a 96-well plate in an amount of 0.1 ml per well, and the cells were cultured sterilely. After the cells were cultured for 2 days, the medium was exchanged with a fresh medium. The compound a derived from root portions of Angelica keiskei koidz. obtained in Example 1 was added thereto as a sample, and the cells were cultured for 5 days. Subsequently, the differentiation into osteoblasts was determined using alkaline phosphatase as an index in the same manner as in Example 2.

With CC12CCC(O)C(C)(C)C1Cc1c(O)ccc(C(=O)/C=C/c3ccc(O)cc3)c1O2 (single isomer, unassigned) [Compound a, (E)-1-(5,6,7,8,8a,10a-hexahydro-1,7-dihydroxy-8,8,10a-trimethyl-9H-xanthen-4-yl)-3-(4-hydroxyphenyl)-2-propen-1-one] the “Induction of differentiation into osteoblasts (in words)” value (ST-2 cells) was “induces differentiation into osteoblasts in a concentration-dependent manner”, the activity at 0.313 µM (ST-2 cells; Mus musculus, 72 h, 0.313 μM, cultured 3 days, control without sample = 100%) was 219% and the activity at 0.625 µM (ST-2 cells; Mus musculus, 72 h, 0.625 μM, cultured 3 days, control without sample = 100%) was 260%. For the same molecule, the activity at 1.25 µM (ST-2 cells; Mus musculus, 72 h, 1.25 μM, cultured 3 days, control without sample = 100%) was 358%, the “Induction of differentiation into osteoblasts (in words)” value (MC3T3-E1 cells) was “induces the differentiation into osteoblasts in a concentration-dependent manner” and the activity at 1.25 µM (MC3T3-E1 cells; Mus musculus, 120 h, 1.25 μM, cultured 5 days, control = 100%) was 171%. For the same molecule, the activity at 2.5 µM (MC3T3-E1 cells; Mus musculus, 120 h, 2.5 μM, cultured 5 days, control = 100%) was 292%.
